ChEMBL document CHEMBL5512607, “Journey of Von Hippel-Lindau (VHL) E3 ligase in PROTACs design: From VHL ligands to VHL-based degraders” (Eur J Med Chem, 2024)
Blank lines part the entries; values can stand above or below the compound they belong to.

Columns and labels:
[1] = target: T1, von Hippel-Lindau disease tumor suppressor/Androgen receptor (Homo sapiens, UniProt P10275+P40337); assay: PROTAC activity at VHL/AR in human LNCaP cells assessed as maximum degradation of AR at 75 uM incubated for 16 hrs by Western blot analysis relative to control; assay type: cell-based
Target sequence in this assay (P10275 whole entry, looked up): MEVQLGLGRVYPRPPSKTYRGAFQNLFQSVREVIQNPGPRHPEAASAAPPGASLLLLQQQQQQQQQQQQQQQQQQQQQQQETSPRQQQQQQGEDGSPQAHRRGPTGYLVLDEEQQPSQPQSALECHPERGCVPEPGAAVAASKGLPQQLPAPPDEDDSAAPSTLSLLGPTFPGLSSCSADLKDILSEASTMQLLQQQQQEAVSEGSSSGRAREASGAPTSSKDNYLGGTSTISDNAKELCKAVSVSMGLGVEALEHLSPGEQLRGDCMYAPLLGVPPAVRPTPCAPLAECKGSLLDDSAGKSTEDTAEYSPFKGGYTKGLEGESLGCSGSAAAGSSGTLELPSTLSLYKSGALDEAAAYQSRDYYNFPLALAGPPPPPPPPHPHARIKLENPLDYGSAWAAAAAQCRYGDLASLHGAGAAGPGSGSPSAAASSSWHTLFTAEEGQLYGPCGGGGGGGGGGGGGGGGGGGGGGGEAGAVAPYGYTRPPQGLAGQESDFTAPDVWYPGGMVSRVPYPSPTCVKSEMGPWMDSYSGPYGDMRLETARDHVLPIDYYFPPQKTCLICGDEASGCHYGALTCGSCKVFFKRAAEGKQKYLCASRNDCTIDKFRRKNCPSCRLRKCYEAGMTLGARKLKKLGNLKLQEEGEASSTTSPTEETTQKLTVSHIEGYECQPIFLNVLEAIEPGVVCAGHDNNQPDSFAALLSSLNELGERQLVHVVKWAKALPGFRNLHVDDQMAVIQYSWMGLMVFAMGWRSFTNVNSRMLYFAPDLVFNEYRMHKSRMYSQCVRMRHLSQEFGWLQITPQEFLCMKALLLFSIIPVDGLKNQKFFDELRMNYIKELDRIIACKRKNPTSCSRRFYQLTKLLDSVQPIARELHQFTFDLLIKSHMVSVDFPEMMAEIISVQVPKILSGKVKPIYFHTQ
Target sequence in this assay (P40337 whole entry, looked up): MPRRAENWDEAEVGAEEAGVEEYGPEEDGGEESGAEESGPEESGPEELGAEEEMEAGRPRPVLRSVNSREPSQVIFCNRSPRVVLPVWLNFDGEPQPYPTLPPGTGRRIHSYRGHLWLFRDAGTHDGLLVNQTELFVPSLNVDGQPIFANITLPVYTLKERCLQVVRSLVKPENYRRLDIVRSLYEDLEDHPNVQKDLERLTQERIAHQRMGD

[2] = target: T1, von Hippel-Lindau disease tumor suppressor/Androgen receptor; assay: PROTAC activity at VHL/AR in human LNCaP cells assessed as induction of AR degradation by Western blot analysis; assay type: cell-based
Target sequence in this assay (P10275 whole entry): as the sequence (P10275 whole entry, looked up) above
Target sequence in this assay (P40337 whole entry): as the sequence (P40337 whole entry, looked up) above

[3] = target: von Hippel-Lindau disease tumor suppressor/Bromodomain-containing protein 4 (Homo sapiens, UniProt O60885+P40337); assay: PROTAC activity at human VHL/BRD4 in human HeLa cells assessed as degradation of BRD4 incubated for 24 hrs by Western blot analysis; assay type: cell-based
Sequence of von Hippel-Lindau disease tumor suppressor/Bromodomain-containing protein 4 (P40337 whole entry, looked up, other chains not shown, the tested form may be a part): as the sequence (P40337 whole entry, looked up) above

[4] = target: T2, Von Hippel-Lindau disease tumor suppressor/Elongin B/Elongin C (Homo sapiens, UniProt P40337); assay: Inhibition of VHL (unknown origin) (1 to 213 residues)/ElonginC/ElonginB expressed in Escherichia coli BL21 (DE3) using (FAM)-labeled HIF-1alpha peptide as substrate incubated for 2 hrs by fluorescence polarization assay
T2 sequence (P40337 whole entry, looked up, the tested form may be a part): as the sequence (P40337 whole entry, looked up) above

[5] = target: T3, von Hippel-Lindau disease tumor suppressor (Homo sapiens, UniProt P40337); assay: Binding affinity to VHL (unknown origin) assessed as dissociation constant by fluorescence polarization assay
T3 sequence (P40337 whole entry): as the sequence (P40337 whole entry, looked up) above

[6] = target: T2, Von Hippel-Lindau disease tumor suppressor/Elongin B/Elongin C; assay: Inhibition of VHL/Elongin B/Elogin C (unknown origin) using FAM-DEALA-Hyp-YIPD as substrate by fluorescence polarization assay; assay type: protein-complex assay
[7] = target: T3, von Hippel-Lindau disease tumor suppressor; assay: Inhibition of VHL (unknown origin)
[8] = target: T4, von Hippel-Lindau disease tumor suppressor/Estrogen receptor (Homo sapiens, UniProt P03372+P40337); assay: PROTAC activity at VHL E3 ligase/ERalpha in human MCF7 cells assessed as reduction in ERalpha protein level by Western blot analysis; assay type: cell-based
Target sequence in this assay (P03372 whole entry): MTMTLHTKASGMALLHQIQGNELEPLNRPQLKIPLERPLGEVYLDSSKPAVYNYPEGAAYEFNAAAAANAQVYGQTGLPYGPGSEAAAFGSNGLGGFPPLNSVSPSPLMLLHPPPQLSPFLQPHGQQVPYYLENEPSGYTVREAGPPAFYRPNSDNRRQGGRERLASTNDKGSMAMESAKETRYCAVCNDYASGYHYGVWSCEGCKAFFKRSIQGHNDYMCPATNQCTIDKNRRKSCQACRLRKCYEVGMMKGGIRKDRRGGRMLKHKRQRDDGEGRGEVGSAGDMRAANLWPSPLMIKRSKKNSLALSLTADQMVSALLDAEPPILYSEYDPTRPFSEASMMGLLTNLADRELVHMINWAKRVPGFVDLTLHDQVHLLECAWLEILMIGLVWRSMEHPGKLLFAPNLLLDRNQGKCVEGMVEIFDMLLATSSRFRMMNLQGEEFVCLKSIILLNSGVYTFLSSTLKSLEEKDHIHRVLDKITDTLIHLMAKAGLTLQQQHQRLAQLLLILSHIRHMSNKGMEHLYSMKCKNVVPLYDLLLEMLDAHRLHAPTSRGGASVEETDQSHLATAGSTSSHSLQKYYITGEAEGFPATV
Target sequence in this assay (P40337 whole entry): as the sequence (P40337 whole entry, looked up) above

[9] = target: T4, von Hippel-Lindau disease tumor suppressor/Estrogen receptor; assay: PROTAC activity at VHL E3 ligase/ERalpha in human T47D cells assessed as maximal degradation of ERalpha protein level at 7.7 nM by Western blot analysis relative to control; assay type: cell-based
Target sequence in this assay (P03372 whole entry, looked up): as the sequence (P03372 whole entry) above
Target sequence in this assay (P40337 whole entry, looked up): as the sequence (P40337 whole entry, looked up) above

[10] = target: T4, von Hippel-Lindau disease tumor suppressor/Estrogen receptor; assay: PROTAC activity at VHL E3 ligase/ERalpha in human T47D cells assessed as maximal degradation of ERalpha protein level at 10.3 nM by Western blot analysis relative to control; assay type: cell-based
Target sequence in this assay (P03372 whole entry, looked up): as the sequence (P03372 whole entry) above
Target sequence in this assay (P40337 whole entry, looked up): as the sequence (P40337 whole entry, looked up) above

[11] = PROTAC activity at VHL/N-terminal His-tagged human p38alpha expressed in […] assessed as p38alpha degradation
[12] = system: von Hippel-Lindau disease tumor suppressor/Mitogen-activated protein kinase 14; assay: PROTAC activity at VHL/N-terminal His-tagged human p38alpha expressed in […] assessed as maximal degradation relative to control
[13] = target: T1, von Hippel-Lindau disease tumor suppressor/Androgen receptor; assay: PROTAC activity at VHL/AR in human VCaP cells assessed as induction of AR degradation by Western blot analysis; assay type: cell-based
Target sequence in this assay (P10275 whole entry): as the sequence (P10275 whole entry, looked up) above
Target sequence in this assay (P40337 whole entry): as the sequence (P40337 whole entry, looked up) above

[14] = target: T1, von Hippel-Lindau disease tumor suppressor/Androgen receptor; assay: PROTAC activity at VHL/AR-V7 in human 22Rv1 cells assessed as induction of AR degradation by Western blot analysis; assay type: cell-based
Target sequence in this assay (P10275 whole entry, looked up, change not shown): as the sequence (P10275 whole entry, looked up) above
Target sequence in this assay (P40337 whole entry, looked up, change not shown): as the sequence (P40337 whole entry, looked up) above

[15] = target: T3, von Hippel-Lindau disease tumor suppressor; assay: Inhibition of NanoLuc-fused VHL (unknown origin) transfected in live HEK293 cells using NanoGlo as substrate incubated for 1 hrs by tracer based NanoBRET assay; assay type: cell-based

SMILES: Cc1cc([C@H](C(=O)N2C[C@H](S(=O)(=O)F)C[C@H]2C(=O)N[C@@H](CC(=O)N2CCC(C#Cc3ccc(C(=O)N[C@H]4C(C)(C)[C@H](Oc5ccc(C#N)c(C(F)(F)F)c5)C4(C)C)cc3)CC2)c2ccc(-c3scnc3C)cc2)C(C)C)on1
Emax [1]: 54%
DC50 [2]: 527 nM

SMILES: COc1cccc(/C=C2\Oc3cc(OCC(=O)N4CC(O)C[C@H]4C(=O)O)ccc3C2=O)c1 (stereo not given in full)
IC50 [4]: 2290 nM

SMILES: Cc1ncsc1-c1ccc(CNC(=O)[C@@H]2C[C@@H](O)CN2C(=O)c2cccc(N)c2C)cc1
IC50 [4]: 10100 nM

SMILES: COc1cc(-c2scnc2C)c(F)cc1CNC(=O)[C@@H]1C[C@@H](O)CN1C(=O)[C@H](NC(=O)C1(F)CC1)C(C)(C)C
Kd [5]: 134 nM

SMILES: O=C(NCc1ccc(Cl)cc1)[C@@H]1C[C@@H](O)CN1C(=O)c1ccccc1Cl
IC50 [6]: 52000 nM

SMILES: Cc1cc(CC(=O)N2C[C@H](O)C[C@H]2C(=O)NCc2cccc(Cl)c2)on1
IC50 [7]: 117 nM

SMILES: Cc1ncsc1-c1ccc([C@H](C)NC(=O)[C@@H]2C[C@@H](O)CN2C(=O)[C@@H](NC(=O)CCCCOc2ccc(/C=C/NC(=O)c3ccc(C(=O)c4c(-c5ccc(O)cc5)sc5cc(O)ccc45)cc3)cc2)C(C)(C)C)cc1
DC50 [8]: 10 nM
Emax [9]: > 95%

SMILES: Cc1ncsc1-c1ccc([C@H](C)NC(=O)[C@@H]2C[C@@H](O)CN2C(=O)[C@@H](NC(=O)CCCCOc2ccc(CCNC(=O)c3ccc(C(=O)c4c(-c5ccc(O)cc5)sc5cc(O)ccc45)cc3)cc2)C(C)(C)C)cc1
Emax [10]: 98%
Emax [9]: 98%

SMILES: COc1cc2c(Oc3ccc(NC(=O)C4(C(=O)Nc5ccc(F)cc5)CC4)cc3F)ccnc2cc1OCCCCOCCCCOCC(=O)N[C@@H](C(=O)N1C[C@H](O)C[C@H]1C(=O)NCc1ccc(-c2scnc2C)cc1)C(C)(C)C
DC50 [11]: 7.16 nM
Emax [12]: 97.4%

SMILES: Cc1ncsc1-c1ccc([C@@H](C)NC(=O)[C@H]2C[C@H](O)CN2C(=O)[C@H](NC(=O)CCCCCNC(=O)COc2ccccc2-c2csc(N3CCOCC3)n2)C(C)(C)C)cc1
DC50 [13]: 2000 nM
DC50 [14]: 370 nM

Second part, the compound after the results:

DC50 [3]: 1 nM
SMILES: CC(=O)N[C@H](C(=O)N1C[C@H](O)[C@H](F)[C@H]1C(=O)Nc1ccc(-c2scnc2C)cc1)C(C)(C)C

Kd [5]: 149 nM
SMILES: Cc1cc(-c2scnc2C)ccc1CNC(=O)[C@@H]1C[C@@H](O)CN1C(=O)[C@H](NC(=O)C1(C#N)CC1)C(C)(C)C

Kd [5]: 37 nM
SMILES: Cc1cc(-c2scnc2C)ccc1[C@H](C)NC(=O)[C@@H]1C[C@@H](O)CN1C(=O)[C@H](NC(=O)C1(F)CC1)C(C)(C)C

Kd [5]: 73 nM
SMILES: Cc1ncsc1-c1ccc([C@H](C)NC(=O)[C@@H]2C[C@@H](O)CN2C(=O)[C@H](NC(=O)C2(F)CC2)C(C)(C)C)cc1F

IC50 [15]: 26000 nM
SMILES: CC(=O)N[C@H](C(=O)N1C[C@H](O)C[C@H]1C(=O)N[C@H](C)c1ccc(-c2scnc2C)cc1)C(C)(C)C
